Assay results taken from PMC11860023, “Synthesis and Characterization of Memantine-Loaded Niosomes for Enhanced Alzheimer’s Disease Targeting” (Pharmaceutics, 2025).
≈ marks a conversion by molar mass, not a printed value. Marks after values point to notes of the source that are not given here.

How the values were obtained:
SH-SY5Y cells = assay: Cell cycle distribution of SH-SY5Y cells by flow cytometry after retinoic acid differentiation; format: cell-based, human; conditions: all-trans retinoic acid 10 µM, 11 days
Procedure: (§1) The SH-SY5Y neuroblastoma cell line, frequently used as an in vitro model of Alzheimer’s disease, has been cultured to transform into mature neuron-like structures through differentiation with retinoic acid (RA). For this purpose, the SH-SY5Y neuroblastoma cell line was grown in a DMEM:F12 nutrient medium environment with 10% fetal bovine serum (FBS) growth factor, 1% Penicillin/streptomycin, and 5% CO2 at 37 °C. The nutrient medium was refreshed every three days, with half the volume changed. Cells were subcultured after treatment with trypsin/EDTA for 5 min. To differentiate SH-SY5Y cells, the medium containing 10 µM RA (DMEM:F12 + 15% FBS) was added. Five days after the addition of RA, the cells were washed three times with PBS and incubated in DMEM:F12. The differentiation of the cells was determined by cell cycle analysis using a flow cytometry system. […] Converted cell cultures were used as a negative control, and cell cultures with only amyloid beta were used as a positive control without adding the synthesized molecules. The viability rates in the in vitro AD model that we intended to create were analyzed with MTT cytotoxicity tests.
To confirm successful differentiation, flow cytometry was utilized to analyze the cell cycle distribution within the cultures.

[1] = tested on: differentiated SH-SY5Y cells; assay: MTT cell viability test in differentiated SH-SY5Y cell cultures; format: cell-based, human; conditions: for cell viability at the highest concentration: 500 µg/mL; for IC50: Homo sapiens, read-out: IC50 (concentration required to achieve 50% cell viability), MTT
Procedure: Differentiated SH-SY5Y cells were seeded into 96-well plates, with each well containing 100 μL of culture medium with 2 × 10^4 cells. […] At the end of the incubation period, 10 μL of MTT mixture was added to each well for MTT analysis. The mixture was gently stirred using a circular mixer for 1 min and then incubated in a CO2 incubator at 37 °C for 3–4 h. […] The culture medium was carefully aspirated from each compartment without disturbing the cell layer. Alternatively, before aspiration, the plate was centrifuged at 400× g for 10 min to settle non-adherent cells. Then, 100 μL of crystal solvent solution (DMSO) was added to each compartment, and the absorbance of each sample was measured at 570 nm using a microplate reader [18].

[2] = Drug loading (encapsulation efficiency) of niosomes, UV at 236 nm after centrifugal filtration; format: physicochemical; conditions: Span60:cholesterol 2:1, drug 1 mg/mL
Procedure: The efficiency of MP1–4 encapsulation within the niosomes was evaluated by quantifying the unencapsulated MP1–4. This was achieved by centrifuging the niosomal mixtures at 4 °C for 20 min at a speed of 4000 rpm, utilizing an Amicon Ultra centrifuge filter unit (Millipore Merck, Darmstadt, DE). The optical density of the supernatant containing free MP1–4 was measured at a wavelength of 236 nm with a UV–Vis spectrophotometer (Eppendorf® 580R centrifuge, Hamburg, DE). By determining the concentration of the free drug in the supernatant, we were able to calculate the unknown amount of encapsulated drug. The encapsulation efficiency percentage was then computed based on the initial molecule concentration (Ci) used in the niosome preparation versus the concentration found post-centrifugation (Cf), as in the following equation:% Loading capacity = [(Ci − Cf)/Ci] × 100 (1)
The loading capacities of the synthesized memantine derivative compounds in the niosomal drug delivery system were examined in detail. In this study, loading efficiency was determined by centrifuging niosomal formulations using an Amicon Ultra centrifuge filter device (Millipore Merck, Burlington, MA, USA) at 4000 rpm for 20 min at 4 °C. The amount of free drug remaining was recorded using a UV–Vis spectrophotometer (Eppendorf® 580R centrifuge, Hamburg, DE). […] However, the loading capacity of the memantine derivative MP2 was determined to be 53%, which is below the desired capacity.

[3] = tested on: differentiated SH-SY5Y cells exposed to amyloid beta 1−42 peptide; assay: Neuroprotection in the in vitro AD model (differentiated SH-SY5Y exposed to amyloid beta 1-42), MTT; format: cell-based, human; conditions: for concentration range of optimal neuroprotective activity: AD model, differentiated neuronal cultures; for increase of cell viability versus amyloid beta only control: derivative loaded into niosomal drug delivery system, 47 µg/mL, 24 h; for cell viability versus amyloid beta only control (neuroprotective effect): free compound 47 µg/mL, 10 µM amyloid beta 1−42
Procedure: as §1
Differentiated SH-SY5Y cells were seeded into 96-well plates, with each well containing 100 μL of culture medium with 2 × 10^4 cells. […] At the end of the incubation period, 10 μL of MTT mixture was added to each well for MTT analysis. The mixture was gently stirred using a circular mixer for 1 min and then incubated in a CO2 incubator at 37 °C for 3–4 h. […] The culture medium was carefully aspirated from each compartment without disturbing the cell layer. Alternatively, before aspiration, the plate was centrifuged at 400× g for 10 min to settle non-adherent cells. Then, 100 μL of crystal solvent solution (DMSO) was added to each compartment, and the absorbance of each sample was measured at 570 nm using a microplate reader.
This peptide is instrumental in AD pathology and serves as a pertinent stressor for assessing the neuroprotective efficacy of potential therapeutic agents.
In the conducted in vitro studies, the neuroprotective effects of memantine derivatives encapsulated within a nanosomal drug delivery system were evaluated using the SH-SY5Y neuroblastoma cell line as a model for AD. The differentiated neuronal cultures were treated with memantine derivatives which were loaded into the niosomal drug delivery systems at a uniform concentration of 47 µg/mL across three independent experimental repeats.

[4] = In vitro drug release from niosomes (dialysis membrane, PBS-SDS, 37 °C); format: physicochemical; conditions: for Higuchi coefficient (kH): release from niosomal carriers, Higuchi model
Procedure: To investigate the drug’s release profile from the niosomes, an in vitro release study was performed. For the release study, we used loading rates calculated by a drug loading study. A 2 mL aliquot of the optimized niosomal formulation was enclosed within a dialysis membrane (with a 12 kDa molecular weight cut-off) and incubated for 72 h at 37 °C. This incubation occurred in a stirring environment within 50 mL of a release solution composed of phosphate-buffered saline with 0.5% sodium dodecyl sulfate (PBS-SDS) by w/v. Samples of 1 mL were systematically withdrawn at specific intervals (1, 2, 4, 8, and 24 h) from the release medium, with each withdrawal immediately compensated for by an equivalent volume of fresh release medium. The optical density of these samples was measured at 236 nm using a spectrophotometer. From these measurements, the quantity of memantine released was calculated, and the release percentages were reported as a proportion of the total drug release.
Drug release capacities with MP1–4 were determined using the niosomal release systems generated. […] This feature offers an important advantage in terms of controlled drug release. The drug release study was carried out by measuring the absorbance using a spectrophotometer on samples taken at specific time intervals (1, 2, 4, 8, and 24 h). These measurements were carried out at the max peak of the drugs, and the data obtained were used to determine the amount of memantine derivative drug released. The results present the percentages of the released content as a percentage of total release. […] It was also concluded that a slow and proportional release occurred over the indicated time period, indicating the potential for controlled drug release (Figure 6).

[5] = tested on: human fibroblast (HDFa) cell cultures; assay: Nuclear abnormality / micronucleus analysis by Hoechst 33258 staining in HDFa cells; format: cell-based; conditions: 24 h, 125 μg/mL
Procedure: (§2) The human fibroblast cell line (ATCC® PCS-201-012™ Manassas, VA, USA) was propagated in DMEM culture medium enriched with a 1% mixture of penicillin/streptomycin antibiotics and 10% fetal bovine serum (FBS) and maintained in an atmosphere containing 5% CO2 at a temperature of 37 °C until they reached full confluence. To identify nuclei alterations, Hoechst 33258 fluorescent dye was employed. […] Following the treatment period, the cells were stabilized using 4% paraformaldehyde at a cool temperature of 4 °C for 30 min. The cells were then rinsed with PBS and exposed to 1 µM of the Hoechst 33258 dye for a brief duration of 5 min [15]. After the staining process, the cells were examined and imaged using a Leica® DM IL LED (Leica Microsystems, Wetzlar, DE) fluorescent microscope.
Figure 4 Analysis of the genotoxic properties of synthesized memantine derivatives (MP1–4) in cultured human fibroblast cells (HDFa) using Hoechst 33258 fluorescent staining of cell nuclei. (A) MP1, (B) MP2, (C), MP3 and (D) MP4.

[6] = tested on: bEnd.3 cells / SH-SY5Y disease model; assay: In vitro BBB permeability test, transwell bEnd.3 monolayer over SH-SY5Y disease model, viability readout; format: cell-based; conditions: carrier 0.1 mg/mL loaded with 47 µg/mL vs non-loaded 47 µg/mL, 24 h
Procedure: In vitro BBB models were created using a transwell culture system for BBB permeability analysis. Initially, bEnd.3 cells were seeded inside the membrane of the plate at a starting density of 1 × 10^5 cells/well and cultured for about a week in DMEM growth medium supplemented with 10% fetal bovine serum. Subsequently, the upper compartments containing bEnd.3 monolayers were transferred to plates containing SH-SY5Y cells coated at the bottom of the lower compartments. Then, carrier particles were added to the apical upper chambers of the BBB models at a final concentration of 0.1 mg/mL. Approximately 24 h after incubation, viability analyses were conducted on the SH-SY5Y disease model formed in the lower layer to determine BBB permeability capacities. A schematic diagram of the method is shown below (Figure 2). Prior to starting the experimental procedures, the bEnd.3 cells were cultured until 90–100% confluency was achieved, as this confluency level is necessary for tight junction formation and optimal barrier properties. The integrity of the cell monolayer was then evaluated under an inverted microscope to confirm confluence and uniform cell distribution, ensuring the reliability of the in vitro BBB model.
In vitro BBB permeability analyses were conducted by establishing in vitro transwell BBB models, within which the effects of drug-loaded MP1–4 were studied. […]

[7] = tested on: human fibroblast cells (HDFa); assay: MTT cell viability assay of MP1–4 in cultured human fibroblast cells (HDFa); format: cell-based; conditions: at each concentration applied
Procedure: as §2
The human fibroblast cell line HDFa was cultured and tested for toxicity with 4 different memantine derivatives in 48-well plates. The experiments, conducted in triplicate, included both treated and untreated (negative control) cell cultures. Post-treatment, the cells were incubated with an MTT mixture to assess cell viability, followed by the addition of a crystal solvent solution (DMSO) to dissolve formazan crystals formed in viable cells. The absorbance of each sample was measured to evaluate the cytotoxic effects of the memantine derivatives on the fibroblast cells. […]

Row | SMILES | Cell Population (%) G1 Phase (SH-SY5Y cells) [%] | Cell Population (%) G2 Phase (SH-SY5Y cells) [%] | Cell Population (%) S Phase (SH-SY5Y cells) [%] | cell viability at the highest concentration [1] | IC50 [1] [µg/mL] | Drug Loading (%) / encapsulation efficiency [2] [%] | concentration range of optimal neuroprotective activity [3] [µg/mL] | increase of cell viability versus amyloid beta only control [3] | cell viability versus amyloid beta only control (neuroprotective effect) [3] | Higuchi coefficient (kH) [4] | Mean NA/1000 Cells ± SD [5] | Nuclear Abnormalities (NA) Total Lobbed [5] | Nuclear Abnormalities (NA) Total MN [5] | Nuclear Abnormalities (NA) Total Notched [5] | effect on cell viability / neuroprotection of niosome-loaded versus non-loaded derivative [6] | drug release behaviour from niosomal release systems ([4]; sampling at 1, 2, 4, 8 and 24 h) | decrease of cell viability [7] [%]
1 | CC1=C(/C=C/C(C)=C/C=C/C(C)=C/C(=O)O)C(C)(C)CCC1 [RA Treated, all-trans retinoic acid] | 72.45 ± 3.78 | 5.34 ± 0.17 | 18.65 ± 3.23 | – | – | – | – | – | – | – | – | – | – | – | – | – | –
2 | CC12CC3CC(C)(C1)CC(NC(=O)CCCc1ccccc1)(C3)C2 [MP2] | – | – | – | relatively higher cell viability | 457 (≈ 1400 µM) | 53 | 31.25 to 125 | approximately 40% | significantly enhanced cell viability | 7.55 | 0.012 ± 0.002 ^a | 5 | 4 | 3 | – | – | –
3 | CCCC(CCC)C(=O)NC12CC3CC(C)(CC(C)(C3)C1)C2 [MP1] | – | – | – | relatively higher cell viability | 5620 (≈ 18400 µM) | ≥ 85 | 15.6 to 62.5 | approximately 40% | significantly enhanced cell viability | 10.36 | 0.013 ± 0.001 ^a | 3 | 5 | 5 | higher effect on cell viability and a significant increase in neuroprotective properties | most optimal drug release | –
4 | CC12CC3CC(C)(C1)CC(NC(=O)/C=C/c1ccc(O)c(O)c1)(C3)C2 [MP4] | – | – | – | significantly reduced | 659 (≈ 1930 µM) | ≥ 85 | – | approximately 40% | significantly enhanced cell viability | 10.82 | 0.013 ± 0.003 ^a | 4 | 5 | 4 | higher effect on cell viability and a significant increase in neuroprotective properties | – | ~40
